The text below walks through data of ChEMBL document CHEMBL5325417, “Dual function of protein phosphatase 5 (PPP5C): An emerging therapeutic target for drug discovery” (Eur J Med Chem, 2023).

Positions count from the first letter of the chain named. Starred links: 1 amine or outer side, 2 acyl side, 3 side chain; linkers in the order of their positions; H or OH if unused. Positions of bridges follow the written chain, without caps; N, C: chain ends. Non-standard residues stand in square brackets, D forms with d. Residues, ends and D or L forms follow the SMILES beside them. Adda = CO[C@@H](Cc1ccccc1)[C@@H](C)/C=C(C)/C=C/[C@H](N[*:1])[C@H](C)C(=O)[*:2]; dAsp(3S-Me) = C[C@H](C(=O)[*:3])[C@@H](N[*:1])C(=O)[*:2]; d(γGlu) = O=C(O)[C@@H](CCC(=O)[*:2])N[*:1]; NMeDha = C=C(NC)C(=O)O

As a reminder, the IC50 is the concentration at which inhibition is half-maximal. What is called inhibition is the percentage by which the read-out fell short of the control. The term EC50 denotes the concentration giving half of the maximal effect. High values mean a less potent agent, low ones a more potent agent. Usually Kd stands for the concentration at which binding is half-saturated.

A short description of experiment [1]: Inhibition of PP4 (unknown origin) phosphatase domain using phosphohistone as substrate. Also noted: species or system Homo sapiens.
Experiment [2] is described as follows: Inhibition of PP3 (unknown origin) phosphatase domain. Also noted: species or system Homo sapiens.
A short description of experiment [3]: Inhibition of PP2A (unknown origin) phosphatase domain using phosphohistone as substrate. On the set-up: species or system Homo sapiens.
Experiment [4] can be described thus: Inhibition of PP1 (unknown origin) phosphatase domain. On the set-up: species or system Homo sapiens.
Experiment [5] in a line: Inhibition of PP6 (unknown origin) phosphatase domain. On the set-up: species or system Homo sapiens.
Experiment [6] has as its target T1, Serine/threonine-protein phosphatase 4 catalytic subunit (Homo sapiens, UniProt P60510).
T1 sequence (P60510 whole entry): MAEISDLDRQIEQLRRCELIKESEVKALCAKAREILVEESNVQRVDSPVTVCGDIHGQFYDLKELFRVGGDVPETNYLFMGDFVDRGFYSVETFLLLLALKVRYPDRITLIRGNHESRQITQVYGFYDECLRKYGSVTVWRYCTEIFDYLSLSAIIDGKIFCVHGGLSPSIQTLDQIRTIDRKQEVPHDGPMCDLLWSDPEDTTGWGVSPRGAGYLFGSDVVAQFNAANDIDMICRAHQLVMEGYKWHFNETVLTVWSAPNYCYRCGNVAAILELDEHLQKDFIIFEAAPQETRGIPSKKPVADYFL
The experiment is described as follows: Inhibition of PP4 (unknown origin) phosphatase domain.

The target of experiment [7] is T2, Serine/threonine-protein phosphatase 5 (Homo sapiens, UniProt P53041).
T2 sequence (P53041 whole entry): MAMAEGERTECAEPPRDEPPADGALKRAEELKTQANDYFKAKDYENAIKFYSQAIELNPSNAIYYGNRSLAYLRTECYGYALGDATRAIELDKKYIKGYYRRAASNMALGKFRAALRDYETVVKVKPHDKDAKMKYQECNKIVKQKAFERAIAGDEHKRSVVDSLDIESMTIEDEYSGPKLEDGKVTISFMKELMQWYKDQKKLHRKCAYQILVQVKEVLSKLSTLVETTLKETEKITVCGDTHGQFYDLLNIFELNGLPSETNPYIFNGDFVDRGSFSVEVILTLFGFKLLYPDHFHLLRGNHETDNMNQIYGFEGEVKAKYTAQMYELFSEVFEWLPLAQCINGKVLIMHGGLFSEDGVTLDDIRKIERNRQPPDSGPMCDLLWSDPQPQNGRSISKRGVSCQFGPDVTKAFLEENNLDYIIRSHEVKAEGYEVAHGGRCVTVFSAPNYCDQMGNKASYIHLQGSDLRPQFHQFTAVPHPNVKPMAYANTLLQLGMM
In words: Inhibition of PPP5C (unknown origin) phosphatase domain.

Experiment [8] has as its target T3, Serine/threonine-protein phosphatase with EF-hands 1 (Homo sapiens, UniProt O14829).
T3 sequence (O14829 whole entry): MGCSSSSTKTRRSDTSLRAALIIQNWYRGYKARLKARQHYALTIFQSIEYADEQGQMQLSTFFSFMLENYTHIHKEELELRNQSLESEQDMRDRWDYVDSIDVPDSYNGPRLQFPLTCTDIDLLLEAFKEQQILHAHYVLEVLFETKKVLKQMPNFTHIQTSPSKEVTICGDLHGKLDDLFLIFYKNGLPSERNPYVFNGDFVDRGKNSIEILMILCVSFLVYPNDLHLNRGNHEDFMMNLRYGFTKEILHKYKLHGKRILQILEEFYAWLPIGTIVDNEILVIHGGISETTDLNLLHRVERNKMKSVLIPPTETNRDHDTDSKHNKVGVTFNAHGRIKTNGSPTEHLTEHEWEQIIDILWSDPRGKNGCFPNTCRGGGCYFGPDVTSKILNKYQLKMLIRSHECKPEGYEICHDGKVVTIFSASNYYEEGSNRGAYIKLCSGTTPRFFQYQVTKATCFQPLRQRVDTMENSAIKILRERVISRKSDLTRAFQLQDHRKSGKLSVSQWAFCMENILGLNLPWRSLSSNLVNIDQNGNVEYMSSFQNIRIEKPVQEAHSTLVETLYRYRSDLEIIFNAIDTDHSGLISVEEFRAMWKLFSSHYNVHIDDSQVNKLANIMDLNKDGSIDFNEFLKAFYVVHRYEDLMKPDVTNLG
In words: Inhibition of PP7 (unknown origin) phosphatase domain.

A short description of experiment [9]: Inhibition of PP2A (unknown origin) phosphatase domain. On the set-up: species or system Homo sapiens.
For experiment [10], the target named is T4, Serine/threonine-protein phosphatase 5 (Homo sapiens) (UniProt P53041).
T4 sequence (whole entry): T2 sequence (P53041 whole entry)
In words: Inhibition of N-terminally 6His-tagged full-length human PPP5C (1 to 499 residues) TPR domain expressed in Escherichia coli Rosetta gami2 (de3) pLysS cells using pNPP as substrate at 10^6 nM preincubated for 10 mins followed by substrate addition and measured for 60 mins relative to control. Particulars: dose 1.0 10^6nM, time 70.0 min.

Experiment [11] addresses T4, Serine/threonine-protein phosphatase 5 (Homo sapiens). The experiment is described as follows: Activation of Histidine-tagged human PPP5C TPR domain assessed as fold change at 10^5 nM. As to conditions: filed as activator, dose 1.0 10^5nM.
Experiment [12] addresses T2, Serine/threonine-protein phosphatase 5. In words: Inhibition of MBP fused recombinant human PPP5C phosphatase domain expressed in Escherichia coli using DiFMUP as substrate.
Experiment [13] in a line: Inhibition of bovine blood PP2A phosphatase domain expressed in Escherichia coli using DiFMUP as substrate. In kind it is tissue-based, Bos taurus.
Experiment [14] has as its target T2, Serine/threonine-protein phosphatase 5. In words: Activation of PPP5C (unknown origin) TPR domain.
Experiment [15] has as its target T5, Serine/threonine-protein phosphatase 5 (Rattus norvegicus) (UniProt P53042).
T5 sequence (whole entry): T2 sequence (P53041 whole entry) with D22E, A24T, H128N, N140S, K158R, S189T, E193D, S221C, I397V, N419Q
In words: Activation of rat PPP5C (428 to 430 residues) phosphatase domain expressed in Escherichia coli BL21-codonplus (DE3)-RIL cells using para-nitrophenyl phosphate as substrate assessed as fold increase at 10^5 nM. Particulars: filed as activator, dose 1.0 10^5nM.

For experiment [16], the target named is T5, Serine/threonine-protein phosphatase 5 (Rattus norvegicus). The experiment is described as follows: Activation of rat PPP5C (428 to 430 residues) phosphatase domain expressed in Escherichia coli BL21-codonplus (DE3)-RIL cells using para-nitrophenyl phosphate as substrate assessed as fold change in maximum efficacy at 10^5 nM. Particulars: filed as activator, dose 1.0 10^5nM.

Experiment [17] addresses T6, Serine/threonine-protein phosphatase 5 (Rattus norvegicus, UniProt P53042).
T6 sequence (P53042 whole entry): T2 sequence (P53041 whole entry) with D22E, A24T, H128N, N140S, K158R, S189T, E193D, S221C, I397V, N419Q
The experiment is described as follows: Binding affinity to rat PPP5C (428 to 430 residues) phosphatase domain expressed in Escherichia coli BL21-codonplus (DE3)-RIL cells using para-nitrophenyl phosphate as substrate assessed as dissociation constant at 10^5 nM.

The target of experiment [18] is T4, Serine/threonine-protein phosphatase 5 (Homo sapiens). In words: Activation of PPP5C (unknown origin) TPR domain assessed as fold change. As to conditions: filed as activator.

On to `C=C1C(=O)N[C@H](C)C(=O)N[C@@H](CC(C)C)C(=O)N[C@@H](C(=O)O)[C@H](C)C(=O)N[C@@H](CCCNC(=N)N)C(=O)N[C@@H](/C=C/C(C)=C/[C@H](C)[C@H](Cc2ccccc2)OC)[C@H](C)C(=O)N[C@@H](C(=O)O)CCC(=O)N1C` [MICROCYSTIN-LR] (R[Adda][d(γGlu)][NMeDha][dA]L[dAsp(3S-Me)]-OH; lactam N-7), for which the IC50 in experiment [1] stood at 0.15 nM; in experiment [2], 200 nM; in experiment [3], 0.04 nM; in experiment [4] it was 1.7 nM.
With `C[C@@](O)(/C=C/[C@H]1CC=CC(=O)O1)[C@@H](C[C@@H](O)\C=C/C=C\C=C\CO)OP(=O)(O)O` [FOSTRIECIN], the IC50 in [5] was 10 nM; in experiment [2] it was above 100000 nM; in experiment [6], 3 nM; in experiment [4] it was above 100000 nM; in [7] it was above 1000 nM; in [8] it was above 1000 nM. In [9], this molecule returned an IC50 of 1.5 nM.
On to `C[C@@]12C(=O)OC(=O)[C@]1(C)[C@H]1CC[C@@H]2O1` [CANTHARIDIN], for which the IC50 was 8000 nM in [5]; 50 nM in experiment [1]; above 500000 nM in experiment [2]; 1700 nM in experiment [4]; 160 nM in experiment [9].
With `Nc1ccc(-c2nc3ccc(-c4nc5ccc(N)cc5[nH]4)cc3[nH]2)cc1`, the inhibition in [10] is above 40%.
In the case of `Cc1ccc(C(=O)Nc2ccc(S(=O)(=O)O)c3cc(S(=O)(=O)O)cc(S(=O)(=O)O)c23)cc1NC(=O)c1cccc(NC(=O)Nc2cccc(C(=O)Nc3cc(C(=O)Nc4ccc(S(=O)(=O)O)c5cc(S(=O)(=O)O)cc(S(=O)(=O)O)c45)ccc3C)c2)c1`, the fold change (FC) in experiment [11] is 4.
On to `CN1CCN(C(=O)[C@H]2[C@@H](C(=O)O)[C@@H]3CC[C@H]2O3)CC1`, for which the IC50 in experiment [4] worked out at 2.4 nM; in experiment [12], 1800 nM; in [13], 400 nM.
In experiment [14], `CC(C)(COP(=O)(O)OP(=O)(O)OC[C@H]1O[C@@H](n2cnc3c(N)ncnc32)[C@H](O)[C@@H]1OP(=O)(O)O)[C@@H](O)C(=O)NCCC(=O)NCCS` [COENZYME_A] came in with an EC50 of 1000 nM.
`O=C(O)CCCCCCCCCCCC[C@H]1C=CCC1` returned an EC50 in [14] of 134000 nM.
As for `C[C@H]1C[C@@H]2O[C@H]1[C@@H](C(=O)O)[C@H]2C(=O)O`, the midpoint of inhibition in experiment [7], the IC50, lay at 1000 nM.
On to `COc1ccc(-c2nc(Cc3ccc(Cl)cc3)no2)cc1OC`, for which the fold change (FC) is 3.2 in experiment [15] and 3.9 in [16]. In addition, the Kd in experiment [17] was 7800 nM.
With `O=C1OC(=O)C2C3CCC(O3)C12` (stereo not given) [DEMETHYL-CANTHARIDIN], the IC50 in experiment [7] was determined as 1000 nM.
As to `CCCCC/C=C\C/C=C\C/C=C\C/C=C\CCCC(=O)O`, in [18], the fold change (FC) is 1.5.
As to `CCCCO[C@H]1C[C@@H]2O[C@H]1[C@@H](C(=O)O)[C@H]2C(=O)O`, the IC50 in experiment [7] worked out at 700 nM.
